The subject of test [1] is Salmonella Typhimurium. The test is described as follows: Salmonella invasion of and intracellular survival in J774.A1 macrophages. In kind it is cell-based.
The subject of test [2] is Salmonella Typhimurium. The test is described as follows: Colonization of mice by Salmonella exposed to indole. In kind it is in vivo. The conditions noted are these: Salmonella exposed to indole compared to solvent-treated controls.
Test [3] relates to TNF. The test is described as follows: TNF production in BMDCs, intracellular staining, flow cytometry. In kind it is cell-based, mouse. The conditions noted are these: 1 mM TDMM 24 hours, LPS (1 ug/ml) 4 hours. On the procedure: Intracellular staining was performed to assess TNF production.
Intracellular staining was performed to assess TNF (FIG. 3A) and IL-12 (FIG. 3B) production.
Briefly, bone marrow was harvested from femurs of mice and cultured for 7 days in the presence of DC-skewing cytokines, GM-CSF and IL-4. […] The pro-inflammatory cytokines, IL-6 and IL-12, were specifically queried. […] Immune cells communicate largely through the production of soluble factors including cytokines, and DCs detect these signals and determine their effector functions accordingly.
The inventors performed a series of assays where bone marrow derived macrophages (BMDMs), bone marrow derived dendritic cells (BMDCs), and splenic dendritic cells (splenic DCs), were exposed to a series of TDMMs, including indole, indole-3-acetate (I3AT), 5-hydroxyindole (5HI), and indole-3-pyruvate (I3P), as well as indole-3-carbinol (I3C; a plant derived compound) to be used for a positive control (1 mM for 24 hours). The BMDMs and BMDCs were stimulated with LPS for 4 hours and assayed at day 7 for expression of various pro-inflammatory cytokines. In a similar assay, the BMDMs and BMDCs were stimulated with LPS or CpG, respectively, for 15 minutes and assayed for pAKT and pERK signaling, which is a reflection of pro-inflammatory response.

In test [4] the test system is TNF. The test is described as follows: TNF production in splenic CD11c+ DCs ex vivo. In kind it is cell-based, mouse. As to conditions: indole overnight. The text has this:
To evaluate the possible role of AhR in mediating the anti-inflammatory effects of indole on DCs, AhR-deficient mice were acquired and analyzed splenic and bone marrow-derived DCs. Splenocytes from AhR-deficient and WT mice were first treated overnight with indole, followed by stimulation with heat-killed S. typhimurium.

A further test deals with NF-kB. The test is described as follows: NF-kB activity assay in DC2.4-NFkB-GLuc reporter cells. The format is cell-based, murine. The conditions noted are these: indole 24 hours, LPS 10 ug/ml.
A further test deals with naïve CD4+CD25− T cells. The test is described as follows: DC-T cell co-culture without cell contact (Transwell): Treg induction. In kind it is cell-based, mouse. The conditions noted are these: exogenous TGF-β added, 3 days.
In test [5] the test system is TNF. The test is described as follows: TNF production in splenic macrophages ex vivo. In kind it is cell-based, mouse. As to conditions: indole overnight. On the procedure: (§1) Similarly, the ex vivo indole conditioning of splenocytes was repeated with tissues from AhR-deficient and wild-type mice and analyzed TNF production. […] Importantly, in this set of experiments splenocytes were stimulated with LPS, heat-killed S. typhimurium, and CpG. […] Specifically, BMDMs were generated from WT or AhR-KO mice and treated with indole (1 mM) or DMF control for 18 hours. BMDMs were then stimulated with IL-6 (10 ng/ml) for the given times and stained for phospho-Stat3, which was detected by flow cytometry.

A further test relates to Stat3. The test is described as follows: IL-6-induced phospho-Stat3 in BMDMs. In kind it is cell-based, mouse. On the procedure:
BMDMs were treated with indole or DMF control for 18 hours, then stimulated with IL-6 (10 ng/ml) for the given times. Cells were stained for phospho-Stat3 and analyzed by flow cytometry.
as §1

The target in the next test is T1, AhR (Homo sapiens, UniProt P35869).
T1 construct: host or cells: CaC-2 intestinal cells; yeast; a liver cancer cell line
T1 sequence (P35869 11-848): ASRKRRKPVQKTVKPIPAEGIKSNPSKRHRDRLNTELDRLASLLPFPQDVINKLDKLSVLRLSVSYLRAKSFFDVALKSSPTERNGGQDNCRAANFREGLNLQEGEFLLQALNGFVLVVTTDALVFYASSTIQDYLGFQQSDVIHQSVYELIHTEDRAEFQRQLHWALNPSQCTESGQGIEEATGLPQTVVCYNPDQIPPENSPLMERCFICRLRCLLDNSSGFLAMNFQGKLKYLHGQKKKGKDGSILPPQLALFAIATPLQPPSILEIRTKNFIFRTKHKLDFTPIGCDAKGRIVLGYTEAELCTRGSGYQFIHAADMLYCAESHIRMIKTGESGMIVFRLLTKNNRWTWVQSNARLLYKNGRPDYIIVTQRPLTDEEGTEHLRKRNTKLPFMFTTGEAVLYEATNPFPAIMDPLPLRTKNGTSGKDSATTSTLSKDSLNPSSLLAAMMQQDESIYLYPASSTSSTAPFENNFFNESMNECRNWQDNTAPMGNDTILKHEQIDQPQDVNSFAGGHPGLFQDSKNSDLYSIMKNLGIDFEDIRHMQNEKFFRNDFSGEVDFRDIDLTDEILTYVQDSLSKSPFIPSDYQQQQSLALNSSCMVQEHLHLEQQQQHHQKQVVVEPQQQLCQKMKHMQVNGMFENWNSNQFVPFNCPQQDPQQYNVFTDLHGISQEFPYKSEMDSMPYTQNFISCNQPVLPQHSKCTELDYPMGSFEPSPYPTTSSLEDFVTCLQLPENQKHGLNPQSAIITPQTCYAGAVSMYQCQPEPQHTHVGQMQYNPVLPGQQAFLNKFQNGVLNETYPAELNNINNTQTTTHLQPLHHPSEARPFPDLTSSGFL
As to conditions: cited from earlier work.

The next test concerns TLR4. The test is described as follows: Surface TLR4 expression on DC2.4 and BMDC. As to conditions: DC2.4 and BMDC 18 hours indole, BMDC indole from day 3.

`c1ccc2[nH]ccc2c1` [Indole, indole]: the “intracellular survival of Salmonella in J774.A1 macrophages” value in the test on Salmonella Typhimurium [1] was “not significantly affected”. For the same compound, the “decrease of Salmonella invasion of J774.A1 macrophages” value with Salmonella Typhimurium [1] (Salmonella exposed to indole) turned out to be 2 fold. In addition, the “competitiveness of Salmonella in colonizing mice” value with Salmonella Typhimurium [2] is “less competitive”. For the same compound, the TNF entry with TNF [3] is on record as “↓↓”. Moreover, the “inhibition of TNF production” value was at least 2 fold in the test with TNF [4] (splenic CD11c+ DCs, LPS or heat-killed S. typhimurium); 2 fold in the test with TNF [4] (splenic DCs from AhR−/− mice, heat-killed S. typhimurium); 2 fold in the test on TNF [4] (splenic DCs from WT mice, heat-killed S. typhimurium); “marked inhibition” with TNF [5] (splenic macrophages from WT or AhR-KO mice, LPS, HK-STM or CpG 6 hours). Also, the “inhibition of NF-kB signaling” value in the test on NF-kB is on record as “approximately one-third”. The “Treg induction by conditioned DCs without cell contact over solvent controls” value in the test with naïve CD4+CD25− T cells is listed as “did not enhance Treg skew”. The “inhibition of TNF production compared to solvent controls” value in the test with TNF [5] (splenic macrophages, LPS or heat-killed S. typhimurium) turned out to be 75%. Moreover, in the test with Stat3 (BMDMs from WT or AhR-KO mice, 1 mM indole 18 hours, IL-6 10 ng/ml), the “reduction of Stat3 signaling” value is reported as “over 60%”. For the same compound, in the test with Stat3 (BMDMs, overnight indole, IL-6 stimulation), the “reduction of number of macrophages undergoing Stat3 phosphorylation” value stood at 50%. At AhR (previous finding of the inventors), the “AhR activity in CaC-2 intestinal cells” value is “antagonist”. The “AhR effect in a liver cancer cell line” value on AhR (previously reported) is given as “antagonistic”. Further, the “AhR effect in yeast” value at AhR (previously reported) is given as “agonistic”. The “surface TLR4 expression on DCs” value in the test on TLR4 is recorded as “does not alter surface TLR4 expression”.

Source of the values: patent US11612586B2, “Indole regulation of antigen presenting cells” (THE TEXAS A&M UNIVERSITY SYSTEM, priority 2016, dated 2023).
